# In ChEMBL document CHEMBL5303304, “EUbOPEN Chemogenomics Library - IncuCyte” (2023):
# Experiments:
# Type in all cases: toxicity, cell-based
# U2OS = assay: Incucyte cell viability with U2OS; conditions: human, 10 µM, compound concentration 10 uM
# Fibroblast = assay: Incucyte cell viability with human fibroblast; conditions: 10 µM, compound concentration 10 uM
# HEK-293T = assay: Incucyte cell viability with HEK293T; conditions: human, 10 µM, compound concentration 10 uM
# Note: unitless GR value; below 1 slowed growth and below 0 cell loss.
SMILES,"Growth Rate (U2OS; 0 h, replicate number 1)","Growth Rate (U2OS; 0 h, replicate number 2)","Growth Rate (U2OS; 12 h, replicate number 1)","Growth Rate (U2OS; 12 h, replicate number 2)","Growth Rate (U2OS; 18 h, replicate number 1)","Growth Rate (U2OS; 24 h, replicate number 1)","Growth Rate (U2OS; 24 h, replicate number 2)","Growth Rate (Fibroblast; 6 h, replicate number 1)","Growth Rate (Fibroblast; 12 h, replicate number 1)","Growth Rate (Fibroblast; 12 h, replicate number 2)","Growth Rate (Fibroblast; 24 h, replicate number 2)","Growth Rate (HEK-293T; 0 h, replicate number 1)","Growth Rate (HEK-293T; 6 h, replicate number 2)","Growth Rate (HEK-293T; 12 h, replicate number 2)","Growth Rate (HEK-293T; 18 h, replicate number 2)","Growth Rate (HEK-293T; 24 h, replicate number 2)","Growth Rate (Fibroblast; 18 h, replicate number 2)","Growth Rate (HEK-293T; 6 h, replicate number 1)","Growth Rate (HEK-293T; 12 h, replicate number 1)","Growth Rate (HEK-293T; 18 h, replicate number 1)",other results
CCCCCCCC/C=C\CCCCCCCC(=O)NCCO [OLEOYLETHANOLAMIDE],-0.18,0.62,0.87,0.68,0.81,0.79,0.76,0.19,0.64,0.96,0.98,-0.38,0.43,0.83,0.75,0.62,–,–,–,–,"Growth Rate (U2OS; 6 h, replicate number 1): 0.87; Growth Rate (U2OS; 6 h, replicate number 2): 0.54; Growth Rate (U2OS; 18 h, replicate number 2): 0.74; Growth Rate (Fibroblast; 18 h, replicate number 1): 0.35; Growth Rate (Fibroblast; 24 h, replicate number 1): 0.78"
CCN1C(=O)/C(=C(\NC2CCN(C)CC2)c2ccc3c(c2)OCO3)c2cc(C(C)=O)ccc21,0.46,-0.34,–,0.81,–,0.89,0.95,0.42,0.32,0.27,0.76,–,0.16,0.78,0.77,–,0.5,0.44,0.64,0.63,"Growth Rate (U2OS; 6 h, replicate number 1): 0.59; Growth Rate (U2OS; 6 h, replicate number 2): 0.61; Growth Rate (Fibroblast; 0 h, replicate number 1): -1; Growth Rate (Fibroblast; 6 h, replicate number 2): 0.53; Growth Rate (Fibroblast; 18 h, replicate number 1): 0.7; Growth Rate (Fibroblast; 24 h, replicate number 1): 0.64; Growth Rate (HEK-293T; 24 h, replicate number 1): 0.71"
Cc1[nH]nc(C(F)(F)F)c1Cc1sc2c(c1C(=O)N1C[C@](C)(O)CO1)c(=O)n(C)c(=O)n2C(C)C [AZD3965],–,–,0.92,0.71,–,0.75,0.83,0.95,–,0.69,0.8,-0.63,–,0.43,0.22,0.21,0.97,–,0.53,0.17,"Growth Rate (U2OS; 18 h, replicate number 2): 0.69; Growth Rate (Fibroblast; 24 h, replicate number 1): 0.9; Growth Rate (HEK-293T; 0 h, replicate number 2): -0.81; Growth Rate (HEK-293T; 24 h, replicate number 1): 0.11"
Cc1cc(Nc2cc(N)ncn2)c(=O)n2c1C(=O)NC21CCCCC1 [TOMIVOSERTIB],0.95,0.6,0.96,–,0.93,0.88,0.85,0.58,-1,–,–,–,–,–,–,–,–,0.32,–,–,"Growth Rate (U2OS; 6 h, replicate number 2): 0.49; Growth Rate (U2OS; 18 h, replicate number 2): 0.92; Growth Rate (Fibroblast; 0 h, replicate number 2): -1; Growth Rate (Fibroblast; 6 h, replicate number 2): -0.8; Growth Rate (HEK-293T; 0 h, replicate number 2): 0.56"
CN1C(=O)c2c(nn(Cc3ccc(-c4cccc(F)n4)cc3)c2Nc2ccccc2)N2C1=N[C@@H]1CCC[C@@H]12.O=P(O)(O)O [LENRISPODUN PHOSPHATE],0.51,–,0.5,–,0.67,0.68,–,–,–,0.65,–,0.85,–,0.71,0.79,0.83,0.94,–,–,–,"Growth Rate (U2OS; 6 h, replicate number 1): 0.84; Growth Rate (Fibroblast; 0 h, replicate number 1): -1; Growth Rate (HEK-293T; 0 h, replicate number 2): 0.18"
Nc1ncc2c(n1)-c1c([nH]c3ccc(C4=CCOCC4)cc13)CCC2,–,0.72,–,0.98,0.96,0.76,–,–,0.69,0.71,0.71,0.56,-0.1,-0.09,0.36,0.41,0.96,-0.33,-0.13,0.18,"Growth Rate (U2OS; 6 h, replicate number 1): 0.74; Growth Rate (Fibroblast; 0 h, replicate number 2): -0.45; Growth Rate (Fibroblast; 18 h, replicate number 1): 0.73; Growth Rate (Fibroblast; 24 h, replicate number 1): 0.68; Growth Rate (HEK-293T; 0 h, replicate number 2): -0.64; Growth Rate (HEK-293T; 24 h, replicate number 1): 0.37"
CN(CC(=O)Nc1ccc(F)c(F)c1F)C(=O)c1ccc2c(c1)OCCO2,-0.71,–,0.45,–,0.76,0.95,–,–,–,0.55,0.87,–,–,–,–,–,0.78,0.37,0.74,0.93,"Growth Rate (U2OS; 6 h, replicate number 1): 0.07; Growth Rate (Fibroblast; 6 h, replicate number 2): 0.54; Growth Rate (Fibroblast; 18 h, replicate number 1): 0.79"
CC[N+](CC)(CC)CCOc1ccc(/C=C/c2ccccc2)cc1.[I-] [STILONIUM IODIDE],-0.67,-0.99,–,1,–,–,0.84,–,–,0.37,0.58,1,0,-0.14,-0.12,-0.15,0.62,-0.34,-0.18,-0.14,"Growth Rate (U2OS; 18 h, replicate number 2): 0.93; Growth Rate (Fibroblast; 0 h, replicate number 1): 0.94; Growth Rate (Fibroblast; 6 h, replicate number 2): -1; Growth Rate (Fibroblast; 18 h, replicate number 1): 0.28; Growth Rate (HEK-293T; 0 h, replicate number 2): 0.44; Growth Rate (HEK-293T; 24 h, replicate number 1): -0.22"
C[C@H](c1ccnc(Nc2nc3ccc(-c4cc(N(C)C)ncn4)cc3[nH]2)c1)N1CCN(C(=O)CC(F)(F)F)CC1 [BAY-985],-0.23,–,–,0.94,–,–,–,0.99,-1,–,–,0.79,0.84,0.95,0.94,0.92,–,0.4,–,–,"Growth Rate (Fibroblast; 0 h, replicate number 2): -1; Growth Rate (Fibroblast; 6 h, replicate number 2): -0.72; Growth Rate (Fibroblast; 24 h, replicate number 1): 0.04; Growth Rate (HEK-293T; 0 h, replicate number 2): 0.27"
CCN1CCN(Cc2ccc(NC(=O)c3ccc(C)c(Oc4ccnc5[nH]ccc45)c3)cc2C(F)(F)F)CC1.Cl.Cl.Cl.O,-0.12,-0.97,0.84,0.38,0.36,0.17,0.04,-0.67,-1,0.02,-0.05,–,-0.99,-0.8,-0.55,-0.43,-0.03,-0.97,-0.89,-0.7,"Growth Rate (U2OS; 6 h, replicate number 2): 0.57; Growth Rate (U2OS; 18 h, replicate number 2): 0.15; Growth Rate (HEK-293T; 24 h, replicate number 1): -0.63"
